Assay results reported in ChEMBL document CHEMBL1909046, “DrugMatrix in vitro pharmacology data”.

Experiments:
[1] = DRUGMATRIX: Calcium Channel Type L, Phenylalkylamine radioligand binding (ligand: [3H] (-)-Desmethoxyverapamil (D-888)); type: cell membranes, Rattus norvegicus, Wistar, Brain, Membrane; settings: Not Active = under 50% inhibition at 10 µM
[2] = DRUGMATRIX: Glutamate, NMDA, Phencyclidine radioligand binding (ligand: [3H] TCP); type: cell membranes, Rattus norvegicus, Wistar, Cerebral cortex, Membrane; settings: Not Active = under 50% inhibition at 10 µM
[3] = DRUGMATRIX: GABAA, Flunitrazepam, Central radioligand binding (ligand: [3H] Flunitrazepam); type: cell membranes, Rattus norvegicus, Wistar, Brain, Membrane; settings: Not Active = under 50% inhibition at 10 µM
[4] = DRUGMATRIX: beta-Lactamase enzyme inhibition (substrate: Nitrocefin); set-up: species or system Bacillus cereus; settings: Not Active = under 50% inhibition at 10 µM
[5] = biological target: Cytochrome P450 2C19 (Homo sapiens, UniProt P33261); settings: bti-tn-5b1-4; further: in other assays of this panel Not Active means under 50% inhibition at 10 µM
Sequence of Cytochrome P450 2C19 (P33261 whole entry): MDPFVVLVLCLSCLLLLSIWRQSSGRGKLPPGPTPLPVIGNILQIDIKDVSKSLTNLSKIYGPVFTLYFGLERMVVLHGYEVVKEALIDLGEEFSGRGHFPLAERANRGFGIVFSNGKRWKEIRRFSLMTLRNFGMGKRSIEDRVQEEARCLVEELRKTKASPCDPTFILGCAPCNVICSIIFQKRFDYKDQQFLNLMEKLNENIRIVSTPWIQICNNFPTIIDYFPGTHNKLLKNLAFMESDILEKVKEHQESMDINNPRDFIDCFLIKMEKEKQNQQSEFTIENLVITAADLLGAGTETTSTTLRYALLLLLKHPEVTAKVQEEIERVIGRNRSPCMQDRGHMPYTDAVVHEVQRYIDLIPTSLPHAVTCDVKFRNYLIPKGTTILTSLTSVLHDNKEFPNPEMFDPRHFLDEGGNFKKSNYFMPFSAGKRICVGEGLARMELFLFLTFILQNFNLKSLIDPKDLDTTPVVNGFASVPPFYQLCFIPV

[6] = biological target: T1, Androgen receptor (Rattus norvegicus, UniProt P15207); further: in other assays of this panel Not Active means under 50% inhibition at 10 µM
T1 sequence (P15207 whole entry): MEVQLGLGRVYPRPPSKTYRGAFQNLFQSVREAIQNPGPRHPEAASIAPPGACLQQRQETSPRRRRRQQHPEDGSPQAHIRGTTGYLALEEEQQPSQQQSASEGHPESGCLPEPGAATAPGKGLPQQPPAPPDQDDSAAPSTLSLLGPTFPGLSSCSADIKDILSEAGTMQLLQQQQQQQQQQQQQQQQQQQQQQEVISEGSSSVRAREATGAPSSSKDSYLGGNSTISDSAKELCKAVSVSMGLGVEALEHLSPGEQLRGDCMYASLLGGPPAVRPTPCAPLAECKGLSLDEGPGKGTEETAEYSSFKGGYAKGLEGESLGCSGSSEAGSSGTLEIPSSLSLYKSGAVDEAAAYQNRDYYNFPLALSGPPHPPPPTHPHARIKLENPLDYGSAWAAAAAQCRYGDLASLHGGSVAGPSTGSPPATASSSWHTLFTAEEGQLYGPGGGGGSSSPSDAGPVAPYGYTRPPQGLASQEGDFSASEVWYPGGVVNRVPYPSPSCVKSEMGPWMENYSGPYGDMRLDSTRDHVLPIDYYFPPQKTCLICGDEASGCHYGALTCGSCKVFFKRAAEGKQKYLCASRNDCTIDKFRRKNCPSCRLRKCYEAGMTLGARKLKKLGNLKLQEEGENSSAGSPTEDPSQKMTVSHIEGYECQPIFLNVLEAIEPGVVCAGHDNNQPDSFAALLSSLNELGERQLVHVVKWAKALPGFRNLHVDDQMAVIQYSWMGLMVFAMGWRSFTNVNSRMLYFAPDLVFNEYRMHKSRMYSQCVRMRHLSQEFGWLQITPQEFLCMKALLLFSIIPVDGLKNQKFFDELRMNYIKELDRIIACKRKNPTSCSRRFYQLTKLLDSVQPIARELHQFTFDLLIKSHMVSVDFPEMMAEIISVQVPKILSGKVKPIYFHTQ

[7] = biological target: T1, Androgen receptor; remark: listed apart in the source
[8] = biological target: Cytochrome P450 2C9 (Homo sapiens, UniProt P11712); further: in other assays of this panel Not Active means under 50% inhibition at 10 µM
Sequence of Cytochrome P450 2C9 (P11712 whole entry): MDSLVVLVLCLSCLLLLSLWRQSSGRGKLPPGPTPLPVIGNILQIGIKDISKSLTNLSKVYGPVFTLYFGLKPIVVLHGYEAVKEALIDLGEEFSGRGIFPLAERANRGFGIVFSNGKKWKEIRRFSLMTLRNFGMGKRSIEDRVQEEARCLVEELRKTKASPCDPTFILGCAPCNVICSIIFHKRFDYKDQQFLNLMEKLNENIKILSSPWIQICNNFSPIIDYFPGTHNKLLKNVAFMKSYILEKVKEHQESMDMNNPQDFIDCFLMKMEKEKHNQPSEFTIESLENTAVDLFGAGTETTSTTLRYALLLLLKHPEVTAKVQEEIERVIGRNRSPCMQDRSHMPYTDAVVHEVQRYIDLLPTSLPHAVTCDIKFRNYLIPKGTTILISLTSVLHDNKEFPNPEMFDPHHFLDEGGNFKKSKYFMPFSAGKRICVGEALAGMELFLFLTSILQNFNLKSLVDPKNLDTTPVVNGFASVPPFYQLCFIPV

[9] = biological target: Cytochrome P450 2D6 (Homo sapiens, UniProt P10635); further: in other assays of this panel Not Active means under 50% inhibition at 10 µM
Sequence of Cytochrome P450 2D6 (P10635 whole entry): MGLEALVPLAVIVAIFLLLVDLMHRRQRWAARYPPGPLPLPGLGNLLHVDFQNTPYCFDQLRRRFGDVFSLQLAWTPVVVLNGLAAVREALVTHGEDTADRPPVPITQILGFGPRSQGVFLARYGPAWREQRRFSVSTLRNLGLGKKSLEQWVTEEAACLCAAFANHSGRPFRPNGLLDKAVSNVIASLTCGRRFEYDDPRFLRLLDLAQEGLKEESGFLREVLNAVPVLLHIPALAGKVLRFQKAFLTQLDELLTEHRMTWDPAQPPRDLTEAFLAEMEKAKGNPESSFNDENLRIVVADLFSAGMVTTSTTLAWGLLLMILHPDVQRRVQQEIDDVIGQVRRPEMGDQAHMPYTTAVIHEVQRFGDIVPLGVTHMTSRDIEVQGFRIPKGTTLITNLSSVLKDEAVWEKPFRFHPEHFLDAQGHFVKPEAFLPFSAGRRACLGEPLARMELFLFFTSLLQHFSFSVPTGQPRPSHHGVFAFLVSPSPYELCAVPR

[10] = biological target: Glycine receptor (Rattus norvegicus, UniProt P07727+P20781+P22771+P24524); type: cell membranes, Wistar, Spinal cord, Membrane; further: in other assays of this panel Not Active means under 50% inhibition at 10 µM
Sequence of Glycine receptor (P22771 whole entry): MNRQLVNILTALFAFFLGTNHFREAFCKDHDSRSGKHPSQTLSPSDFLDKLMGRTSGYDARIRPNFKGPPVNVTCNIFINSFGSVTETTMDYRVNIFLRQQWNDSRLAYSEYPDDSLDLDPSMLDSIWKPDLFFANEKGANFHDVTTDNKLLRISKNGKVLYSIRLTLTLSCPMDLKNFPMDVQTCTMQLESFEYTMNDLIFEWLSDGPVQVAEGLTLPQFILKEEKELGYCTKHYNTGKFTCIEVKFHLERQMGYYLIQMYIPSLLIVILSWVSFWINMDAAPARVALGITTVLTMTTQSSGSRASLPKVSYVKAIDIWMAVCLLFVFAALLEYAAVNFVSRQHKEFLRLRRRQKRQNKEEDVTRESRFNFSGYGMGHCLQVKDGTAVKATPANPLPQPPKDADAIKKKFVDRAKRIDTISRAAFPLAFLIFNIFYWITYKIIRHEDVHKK
Sequence of Glycine receptor (P24524 whole entry): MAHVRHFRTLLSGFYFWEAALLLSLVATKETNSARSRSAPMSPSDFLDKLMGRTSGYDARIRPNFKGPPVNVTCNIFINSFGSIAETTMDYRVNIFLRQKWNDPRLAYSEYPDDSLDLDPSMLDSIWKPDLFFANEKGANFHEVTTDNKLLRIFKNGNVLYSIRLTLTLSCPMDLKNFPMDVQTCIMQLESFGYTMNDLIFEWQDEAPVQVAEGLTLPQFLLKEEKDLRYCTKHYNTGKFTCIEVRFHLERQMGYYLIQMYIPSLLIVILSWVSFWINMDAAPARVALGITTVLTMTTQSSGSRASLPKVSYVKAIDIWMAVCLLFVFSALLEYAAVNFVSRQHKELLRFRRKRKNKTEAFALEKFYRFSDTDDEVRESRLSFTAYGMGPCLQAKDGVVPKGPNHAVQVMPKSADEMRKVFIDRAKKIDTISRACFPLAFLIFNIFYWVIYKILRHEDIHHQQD
Sequence of Glycine receptor (P07727 whole entry): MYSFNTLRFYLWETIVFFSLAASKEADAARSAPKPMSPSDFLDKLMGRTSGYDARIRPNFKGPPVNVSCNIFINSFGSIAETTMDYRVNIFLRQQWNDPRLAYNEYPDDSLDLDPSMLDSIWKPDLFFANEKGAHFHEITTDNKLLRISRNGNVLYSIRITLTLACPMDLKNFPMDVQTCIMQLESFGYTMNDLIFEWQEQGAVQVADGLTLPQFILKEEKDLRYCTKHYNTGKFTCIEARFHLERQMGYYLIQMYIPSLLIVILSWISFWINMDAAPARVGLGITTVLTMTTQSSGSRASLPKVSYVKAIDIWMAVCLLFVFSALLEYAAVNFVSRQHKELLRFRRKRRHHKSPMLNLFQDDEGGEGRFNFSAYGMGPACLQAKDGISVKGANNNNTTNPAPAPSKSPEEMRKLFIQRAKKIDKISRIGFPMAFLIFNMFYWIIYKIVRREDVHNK
Sequence of Glycine receptor (P20781 whole entry): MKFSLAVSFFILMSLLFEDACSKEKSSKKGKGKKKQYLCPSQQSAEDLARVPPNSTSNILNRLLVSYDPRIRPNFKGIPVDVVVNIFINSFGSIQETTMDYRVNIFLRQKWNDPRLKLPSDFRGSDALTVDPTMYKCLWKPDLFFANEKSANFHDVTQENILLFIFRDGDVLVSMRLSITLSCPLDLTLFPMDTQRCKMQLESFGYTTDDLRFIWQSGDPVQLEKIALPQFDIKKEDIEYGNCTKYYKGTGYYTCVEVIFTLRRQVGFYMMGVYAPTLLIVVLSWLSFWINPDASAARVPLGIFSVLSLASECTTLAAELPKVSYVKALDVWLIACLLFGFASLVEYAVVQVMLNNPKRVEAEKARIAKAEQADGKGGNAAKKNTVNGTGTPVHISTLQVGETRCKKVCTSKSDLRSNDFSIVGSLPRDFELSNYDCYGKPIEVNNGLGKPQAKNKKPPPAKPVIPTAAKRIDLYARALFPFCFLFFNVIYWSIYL

## CCCCC(=O)N(Cc1ccc(-c2ccccc2-c2nnn[nH]2)cc1)[C@H](C(=O)O)C(C)C
[1]
  IC50: Not Active
  Ki: Not Active
[2]
  IC50: Not Active
  Ki: Not Active
[3]
  IC50: Not Active
  Ki: Not Active
[4]
  IC50: Not Active
  Ki: Not Active
[5]
  IC50: Not Active
  Ki: Not Active

## O=C(O)COc1ccc(C(=O)c2cccs2)c(Cl)c1Cl
[6]
  IC50: Not Active
[1]
  IC50: Not Active
  Ki: Not Active
[2]
  IC50: Not Active
  Ki: Not Active
[3]
  IC50: Not Active
  Ki: Not Active
[4]
  IC50: Not Active
  Ki: Not Active
[5]
  IC50: Not Active
  Ki: Not Active

## CN1[C@@H]2CC[C@H]1C[C@@H](OC(c1ccccc1)c1ccccc1)C2 [BENZTROPINE]
[5]
  IC50: Not Active
  Ki: Not Active

## C[C@@](Cc1ccc(O)c(O)c1)(NN)C(=O)O.O [CARBIDOPA]
[1]
  IC50: Not Active
  Ki: Not Active
[2]
  IC50: Not Active
  Ki: Not Active
[3]
  IC50: Not Active
  Ki: Not Active
[4]
  IC50: Not Active
  Ki: Not Active
[5]
  IC50: Not Active
  Ki: Not Active

## CN1CCN(C2=Nc3cc(Cl)ccc3Nc3ccccc32)CC1 [CLOZAPINE]
[5]
  IC50: Not Active
  Ki: Not Active

## CC(C)NC[C@@H](O)COc1cccc2ccccc12 [DEXPROPRANOLOL]
[5]
  IC50: Not Active
  Ki: Not Active

## CC(C)NC[C@H](O)COc1cccc2ccccc12 [LEVOPROPRANOLOL]
[5]
  IC50: Not Active
  Ki: Not Active

## O=C(O)CCCCC1CCSS1 (stereo not drawn) [LIPOIC ACID, ALPHA]
[1]
  IC50: Not Active
  Ki: Not Active
[2]
  IC50: Not Active
  Ki: Not Active
[3]
  IC50: Not Active
  Ki: Not Active
[4]
  IC50: Not Active
  Ki: Not Active
[5]
  IC50: Not Active
  Ki: Not Active

## CN(C)C(=O)C(CCN1CCC(O)(c2ccc(Cl)cc2)CC1)(c1ccccc1)c1ccccc1 [LOPERAMIDE]
[5]
  IC50: Not Active
  Ki: Not Active

## Clc1ccc(COC(Cn2ccnc2)c2ccc(Cl)cc2Cl)c(Cl)c1 (stereo not drawn) [MICONAZOLE]
[7]
  IC50: 7090 nM
  Ki: 4730 nM
[8]
  IC50: 200 nM
[9]
  IC50: 1000 nM

## Oc1ccc2c3c1O[C@H]1[C@@H](O)CC[C@@]4(O)[C@@H](C2)N(CC2CCC2)CC[C@]314 [NALBUPHINE]
[6]
  IC50: Not Active

## C[C@]12C=CC(=O)C=C1CC[C@@H]1[C@@H]2C(=O)C[C@@]2(C)[C@H]1CC[C@]2(O)C(=O)CO [PREDNISONE]
[1]
  IC50: Not Active
  Ki: Not Active
[2]
  IC50: Not Active
  Ki: Not Active
[3]
  IC50: Not Active
  Ki: Not Active
[4]
  IC50: Not Active
  Ki: Not Active

## OCCOCCN1CCN(C2=Nc3ccccc3Sc3ccccc32)CC1 [QUETIAPINE]
[5]
  IC50: Not Active
  Ki: Not Active

## COC(=O)[C@H]1[C@H]2C[C@@H]3c4[nH]c5cc(OC)ccc5c4CCN3C[C@H]2C[C@@H](OC(=O)c2cc(OC)c(OC)c(OC)c2)[C@@H]1OC [RESERPINE]
[1]; read-out: IC50
  IC50: 2050 nM
[1]; read-out: Ki
  Ki: 1990 nM
[2]
  IC50: Not Active
  Ki: Not Active
[3]
  IC50: Not Active
  Ki: Not Active
[4]
  IC50: Not Active
  Ki: Not Active
[5]
  IC50: Not Active
  Ki: Not Active

## O=C(O)c1ccccc1O [SALICYLIC ACID]
[1]
  IC50: Not Active
  Ki: Not Active
[2]
  IC50: Not Active
  Ki: Not Active
[3]
  IC50: Not Active
  Ki: Not Active
[4]
  IC50: Not Active
  Ki: Not Active
[5]
  IC50: Not Active
  Ki: Not Active

## C[S+]([O-])c1ccc(-c2nc(-c3ccncc3)c(-c3ccc(F)cc3)[nH]2)cc1 (stereo not drawn) [SB-203580]
[6]
  IC50: Not Active
[8]
  IC50: 1000 nM
[9]
  IC50: 2000 nM

## CC1CCC(NC(=O)N(CCCl)N=O)CC1 (stereo not drawn) [SEMUSTINE]
[1]
  IC50: Not Active
  Ki: Not Active
[2]
  IC50: Not Active
  Ki: Not Active
[3]
  IC50: Not Active
  Ki: Not Active
[4]
  IC50: Not Active
  Ki: Not Active
[5]
  IC50: Not Active
  Ki: Not Active

## O=C1C[C@@H]2OCC=C3CN4CC[C@]56c7ccccc7N1[C@H]5[C@H]2[C@H]3C[C@H]46 [STRYCHNINE]
[1]
  IC50: Not Active
  Ki: Not Active
[2]
  IC50: Not Active
  Ki: Not Active
[10]
  IC50: 8.29 nM
  Ki: 4.69 nM
[3]
  IC50: Not Active
  Ki: Not Active
[4]
  IC50: Not Active
  Ki: Not Active
[5]
  IC50: Not Active
  Ki: Not Active

## C[N+](C)(C)CCOC(=O)CCC(=O)OCC[N+](C)(C)C.[Cl-].[Cl-] [SUCCINYLCHOLINE CHLORIDE]
[1]
  IC50: Not Active
  Ki: Not Active
[2]
  IC50: Not Active
  Ki: Not Active
[3]
  IC50: Not Active
  Ki: Not Active
[4]
  IC50: Not Active
  Ki: Not Active

## Nc1ccc(S(=O)(=O)NC(=O)c2ccccc2)cc1 [SULFABENZAMIDE]
[1]
  IC50: Not Active
  Ki: Not Active
[2]
  IC50: Not Active
  Ki: Not Active
[3]
  IC50: Not Active
  Ki: Not Active
[4]
  IC50: Not Active
  Ki: Not Active
[5]
  IC50: Not Active
  Ki: Not Active

## CCCCCCCCNC(C)C(O)c1ccc(SC(C)C)cc1 (stereo not drawn) [SULOCTIDIL]
[6]
  IC50: Not Active
[1]; read-out: IC50
  IC50: 525 nM
[1]; read-out: Ki
  Ki: 510 nM
[2]
  IC50: Not Active
  Ki: Not Active
[3]
  IC50: Not Active
  Ki: Not Active
[4]
  IC50: Not Active
  Ki: Not Active
[5]
  IC50: Not Active
  Ki: Not Active

## O=c1[nH]c(=O)n(C2CCCO2)cc1F (stereo not drawn) [TEGAFUR]
[1]
  IC50: Not Active
  Ki: Not Active
[2]
  IC50: Not Active
  Ki: Not Active
[3]
  IC50: Not Active
  Ki: Not Active
[4]
  IC50: Not Active
  Ki: Not Active
[5]
  IC50: Not Active
  Ki: Not Active

## CC(=N)S [THIOACETAMIDE]
[1]
  IC50: Not Active
  Ki: Not Active
[2]
  IC50: Not Active
  Ki: Not Active
[3]
  IC50: Not Active
  Ki: Not Active
[4]
  IC50: Not Active
  Ki: Not Active
[5]
  IC50: Not Active
  Ki: Not Active

## Cc1ccc(C(=O)c2ccc(CC(=O)O)n2C)cc1 [TOLMETIN]
[6]
  IC50: Not Active
[1]
  IC50: Not Active
  Ki: Not Active
[2]
  IC50: Not Active
  Ki: Not Active
[3]
  IC50: Not Active
  Ki: Not Active
[4]
  IC50: Not Active
  Ki: Not Active
[5]
  IC50: Not Active
  Ki: Not Active

## CC(=O)OCC(COC(C)=O)OC(C)=O [TRIACETIN]
[1]
  IC50: Not Active
  Ki: Not Active
[2]
  IC50: Not Active
  Ki: Not Active
[3]
  IC50: Not Active
  Ki: Not Active
[4]
  IC50: Not Active
  Ki: Not Active
[5]
  IC50: Not Active
  Ki: Not Active

## CN1CCN(CCCN2c3ccccc3Sc3ccc(C(F)(F)F)cc32)CC1 [TRIFLUOPERAZINE]
[1]
  IC50: Not Active
  Ki: Not Active
[2]
  IC50: Not Active
  Ki: Not Active
[3]
  IC50: Not Active
  Ki: Not Active
[4]
  IC50: Not Active
  Ki: Not Active

## TRANSPLATIN
[6]
  IC50: Not Active
  Ki: Not Active
[1]
  IC50: Not Active
  Ki: Not Active
[2]
  IC50: Not Active
  Ki: Not Active
[3]
  IC50: Not Active
  Ki: Not Active
[4]
  IC50: Not Active
  Ki: Not Active
[5]
  IC50: Not Active
  Ki: Not Active

## ZIRCONIUM(IV) CHLORIDE
[6]
  IC50: Not Active
  Ki: Not Active
[1]
  IC50: Not Active
  Ki: Not Active
[2]
  IC50: Not Active
  Ki: Not Active
[3]
  IC50: Not Active
  Ki: Not Active
[4]
  IC50: Not Active
  Ki: Not Active
[5]
  IC50: Not Active
  Ki: Not Active
